Laboratory results: the NIST ThermoML archive (doi:10.1021/acs.jced.8b00692)

Assay: xn = mol fraction of the nth substance listed
Conditions: 102 kPa, Liquid; for viscosity: Concentric cylinders viscometry; for speed of sound: Frequency=3 MHz, Single path-length method; for mass density: Vibrating tube method

CCCCCCCCCCCCC1CCCCC1 [dodecylcyclohexane] + CCCCCCCCCCCCCCCC
Conditions	mass density [kg/m3]	speed of sound [m/s]	viscosity [mPa·s]
293.15 K, x1 = 0.2002	783.66	1370.4	4.02
293.15 K, x1 = 0.4001	793.67	1384	4.72
293.15 K, x1 = 0.5001	798.59	1390.6	5.11
293.15 K, x1 = 0.6003	803.47	1396.7	5.49
293.15 K, x1 = 0.8001	812.98	1410.4	6.49
293.15 K, x1 = 1	822.31	1423.3	7.76
303.15 K, x1 = 0.2002	776.77	1333.2	3.17
303.15 K, x1 = 0.4001	786.84	1347	3.66
303.15 K, x1 = 0.5001	791.79	1353.7	3.95
303.15 K, x1 = 0.6003	796.69	1359.9	4.23
303.15 K, x1 = 0.8001	806.26	1373.4	4.93
303.15 K, x1 = 1	815.65	1386.3	5.81
313.15 K, x1 = 0.2002	769.91	1296.9	2.56
313.15 K, x1 = 0.4001	780.03	1310.8	2.92
313.15 K, x1 = 0.5001	785.01	1317.6	3.13
313.15 K, x1 = 0.6003	789.93	1323.8	3.34
313.15 K, x1 = 0.8001	799.57	1337.3	3.85
313.15 K, x1 = 1	809.01	1350.4	4.48
323.15 K, x1 = 0.2002	763.05	1261.2	2.1
323.15 K, x1 = 0.4001	773.23	1275.3	2.38
323.15 K, x1 = 0.5001	778.23	1282.1	2.54
323.15 K, x1 = 0.6003	783.19	1288.5	2.7
323.15 K, x1 = 0.8001	792.89	1302	3.09
323.15 K, x1 = 1	802.37	1315.2	3.55
333.15 K, x1 = 0.2002	756.19	1226.5	1.76
333.15 K, x1 = 0.4001	766.43	1240.6	1.97
333.15 K, x1 = 0.5001	771.46	1247.5	2.1
333.15 K, x1 = 0.6003	776.44	1254.3	2.23
333.15 K, x1 = 0.8001	786.2	1267.8	2.53
333.15 K, x1 = 1	795.74	1281.1	2.88
343.15 K, x1 = 0.2002	749.3	–	1.49
343.15 K, x1 = 0.4001	759.7	–	1.67
343.15 K, x1 = 0.5001	764.7	–	1.77
343.15 K, x1 = 0.6003	769.7	–	1.88
343.15 K, x1 = 0.8001	779.6	–	2.11
343.15 K, x1 = 1	789.1	–	2.39
353.15 K, x1 = 0.2002	742.4	–	1.28
353.15 K, x1 = 0.4001	752.9	–	1.43
353.15 K, x1 = 0.5001	757.9	–	1.51
353.15 K, x1 = 0.6003	763	–	1.6
353.15 K, x1 = 0.8001	772.9	–	1.79
353.15 K, x1 = 1	782.5	–	2.01
363.15 K, x1 = 0.2002	735.6	–	1.14
363.15 K, x1 = 0.4001	746.1	–	1.24
363.15 K, x1 = 0.5001	751.1	–	1.31
363.15 K, x1 = 0.6003	756.2	–	1.38
363.15 K, x1 = 0.8001	766.2	–	1.54
363.15 K, x1 = 1	775.9	–	1.72
373.15 K, x1 = 0.2002	728.7	–	0.978
373.15 K, x1 = 0.4001	739.3	–	1.08
373.15 K, x1 = 0.5001	744.3	–	1.14
373.15 K, x1 = 0.6003	749.4	–	1.21
373.15 K, x1 = 0.8001	759.5	–	1.34
373.15 K, x1 = 1	769.2	–	1.48
